The experiment relates to BDF1 mice, B16 melanoma ip, median survival T/C. Nature of the experiment: NCI In Vivo Anticancer Drug Screen. Data for tumor model B16 Melanoma (intraperitoneal) in B6D2F1 (BDF1) mice. The following applies: endpoint: median survival time, higher = longer survival. In a few lines:
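Read-out: survival or tumor size, given as treated/control ratio. Controls received vehicle only; animals bore transplantable tumors.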

The mark [1] stands for this setting: dose: 1.5 mg/kg/injection, schedule: Q01DX009 (ip), vehicle: saline.
The mark [2] stands for this setting: dose: 3.0 mg/kg/injection, schedule: Q01DX009 (ip), vehicle: saline.
The mark [3] stands for this setting: dose: 12.5 mg/kg/injection, schedule: Q01DX009 (ip), vehicle: saline.
The mark [4] stands for this setting: dose: 25.0 mg/kg/injection, schedule: Q01DX009 (ip), vehicle: saline.
[5] abbreviates: dose: 100.0 mg/kg/injection, schedule: Q04DX003 (ip), vehicle: Klucel (hydroxypropylcellulose) (HPC).
[6] abbreviates: dose: 200.0 mg/kg/injection, schedule: Q04DX003 (ip), vehicle: Klucel (hydroxypropylcellulose) (HPC).
[7] abbreviates: dose: 400.0 mg/kg/injection, schedule: Q04DX003 (ip), vehicle: Klucel (hydroxypropylcellulose) (HPC).
The mark [8] stands for this setting: dose: 100.0 mg/kg/injection, schedule: Q01DX009 (ip), vehicle: Klucel (hydroxypropylcellulose) (HPC).
Where [9] appears, read: dose: 200.0 mg/kg/injection, schedule: Q01DX009 (ip), vehicle: Klucel (hydroxypropylcellulose) (HPC).
The mark [10] stands for this setting: dose: 1.56 mg/kg/injection, schedule: Q01DX009 (ip), vehicle: saline.
The mark [11] stands for this setting: dose: 25.0 mg/kg/injection, schedule: Q01DX009 (ip), vehicle: saline with Tween-80.
Setting [12] is: dose: 50.0 mg/kg/injection, schedule: Q01DX009 (ip), vehicle: saline with Tween-80.
Setting [13] is: dose: 100.0 mg/kg/injection, schedule: Q01DX009 (ip), vehicle: saline with Tween-80.
The mark [14] stands for this setting: dose: 400.0 mg/kg/injection, schedule: Q01DX009 (ip), vehicle: saline with Tween-80.
Setting [15] is: dose: 50.0 mg/kg/injection, schedule: Q01DX009 (ip), vehicle: Klucel (hydroxypropylcellulose) (HPC).
[16] abbreviates: dose: 200.0 mg/kg/injection, schedule: Q01DX009 (ip), vehicle: saline with Tween-80.

Inconclusive results and toxic doses are left out.

Take `Cc1ccc(NC(=O)c2ccccc2)cc1[As]=[As]c1cc(NC(=O)c2ccccc2)ccc1C` (stereo unspecified): the T/C runs as follows: (dose: 0.04 mg/kg/injection, schedule: Q01DX009 (ip), vehicle: saline with Tween-80) 107 % of control; (dose: 0.08 mg/kg/injection, schedule: Q01DX009 (ip), vehicle: saline with Tween-80) 102 % of control; (dose: 0.08 mg/kg/injection, schedule: Q04DX003 (ip), vehicle: saline) 101 % of control; (dose: 0.15 mg/kg/injection, schedule: Q01DX009 (ip), vehicle: saline with Tween-80) 104 % of control; (dose: 0.15 mg/kg/injection, schedule: Q04DX003 (ip), vehicle: saline) 91 % of control; (dose: 0.16 mg/kg/injection, schedule: Q04DX003 (ip), vehicle: Klucel (hydroxypropylcellulose) (HPC)) 101 % of control. Further, the T/C is 100 % of control (dose: 0.3 mg/kg/injection, schedule: Q01DX009 (ip), vehicle: saline with Tween-80); 92 % of control (dose: 0.3 mg/kg/injection, schedule: Q04DX003 (ip), vehicle: saline); 98 % of control (dose: 0.31 mg/kg/injection, schedule: Q04DX003 (ip), vehicle: Klucel (hydroxypropylcellulose) (HPC)); 91 % of control (dose: 0.6 mg/kg/injection, schedule: Q04DX003 (ip), vehicle: saline); 89 % of control (dose: 0.63 mg/kg/injection, schedule: Q04DX003 (ip), vehicle: saline with Tween-80); 161 % of control (dose: 2.5 mg/kg/injection, schedule: Q04DX003 (ip), vehicle: saline with Tween-80). Further, the T/C (dose: 5.0 mg/kg/injection, schedule: Q04DX003 (ip), vehicle: saline with Tween-80) is 105 % of control.
With `Cc1c([C@H](C)[C@@H]2NC[C@@H](C)C[C@H]2O)ccc2c1C[C@H]1[C@H]2CC=C2C[C@@H](O)CC[C@@]21C`, the T/C is 97 % of control under setting [1] and 104 % of control under setting [2].
Regarding `[I][Ga]([I])[I]`, the T/C was 87 % of control under setting [3] and 102 % of control under setting [4].
With `NC(=O)Oc1ccc(Cc2ccccc2)cc1`, the T/C runs as follows: under setting [5], 95 % of control; under setting [6], 91 % of control; under setting [7], 97 % of control.
As for `CC(CC#N)OC(=O)c1cccc([N+](=O)[O-])c1` (stereo unspecified), the T/C runs as follows: under setting [8], 88 % of control; under setting [9], 99 % of control; (dose: 400.0 mg/kg/injection, schedule: Q01DX009 (ip), vehicle: Klucel (hydroxypropylcellulose) (HPC)) 91 % of control.
Take `CN(C)C1=NC(=O)C(c2ccccc2)O1` (stereo unspecified): the T/C under setting [3] was 117 % of control; the T/C under setting [4] is 105 % of control; the T/C (dose: 50.0 mg/kg/injection, schedule: Q01DX009 (ip), vehicle: saline) was 111 % of control; the T/C (dose: 100.0 mg/kg/injection, schedule: Q01DX009 (ip), vehicle: saline) was 114 % of control.
Turning to `NC(=O)CC(N)C(=O)O.[Cl-].[Cl-].[Cl-].[Cl-].[Pt+2]` (stereo unspecified), the T/C is, setting by setting: under setting [10], 114 % of control; (dose: 3.13 mg/kg/injection, schedule: Q01DX009 (ip), vehicle: saline) 122 % of control.
Take `O=C1C(F)=C(N2CC2)C(=O)C(N2CCOCC2)=C1N1CC1`: the T/C was 118 % of control (dose: 0.75 mg/kg/injection, schedule: Q01DX009 (ip), vehicle: saline); 108 % of control under setting [1]; 100 % of control under setting [2].
`O=C(O)CNC(=O)C(Br)Cc1ccccc1` (stereo unspecified): the T/C by setting is: under setting [11], 91 % of control; under setting [12], 88 % of control; under setting [13], 91 % of control; under setting [14], 89 % of control.
`Cc1ccc(NC(=O)COc2ccc(Cl)cc2)c([N+](=O)[O-])c1`: the T/C is 95 % of control (dose: 75.0 mg/kg/injection, schedule: Q01DX009 (ip), vehicle: Klucel (hydroxypropylcellulose) (HPC)); 97 % of control (dose: 150.0 mg/kg/injection, schedule: Q01DX009 (ip), vehicle: Klucel (hydroxypropylcellulose) (HPC)); 90 % of control (dose: 300.0 mg/kg/injection, schedule: Q01DX009 (ip), vehicle: Klucel (hydroxypropylcellulose) (HPC)).
Turning to `NC(=O)c1cc(N2CC2)c([N+](=O)[O-])cc1[N+](=O)[O-]`, the T/C runs as follows: (dose: 5.0 mg/kg/injection, schedule: Q01DX009 (ip), vehicle: saline) 104 % of control; (dose: 10.0 mg/kg/injection, schedule: Q01DX009 (ip), vehicle: saline) 109 % of control; (dose: 20.0 mg/kg/injection, schedule: Q01DX009 (ip), vehicle: saline) 95 % of control.
Regarding `CC(O)C1(O)C(O)CC(OC2c3cc4c(c(O)c3[C@@H]3C[C@@]2(C)OC32C=c3cc[nH]c3=N2)C(=O)c2cccc(O)c2C4=O)OC1C` (stereo partly specified), the T/C is 97 % of control (dose: 0.5 mg/kg/injection, schedule: Q01DX009 (ip), vehicle: saline with Tween-80); 112 % of control (dose: 1.0 mg/kg/injection, schedule: Q01DX009 (ip), vehicle: saline with Tween-80); 109 % of control (dose: 2.0 mg/kg/injection, schedule: Q01DX009 (ip), vehicle: saline with Tween-80); 117 % of control (dose: 4.0 mg/kg/injection, schedule: Q01DX009 (ip), vehicle: saline with Tween-80); 115 % of control (dose: 8.0 mg/kg/injection, schedule: Q01DX009 (ip), vehicle: saline with Tween-80); 124 % of control (dose: 16.0 mg/kg/injection, schedule: Q01DX009 (ip), vehicle: saline with Tween-80).
Regarding `COC(=O)C1(C)CCC(c2ccc(OC)cc2)CC1=O` (stereo unspecified), the T/C is, setting by setting: under setting [15], 90 % of control; under setting [9], 87 % of control.
`Oc1ccc(I)c2cccnc12`: the T/C runs as follows: under setting [12], 97 % of control; under setting [13], 100 % of control; under setting [16], 97 % of control.
As for `O=C(OCCCCCCl)c1ccccc1`, the T/C was 117 % of control under setting [13], 104 % of control under setting [16] and 106 % of control under setting [14].
As to `CCN(C(=O)c1cccc(C(=O)N(CC)c2ccccc2C)c1)c1ccccc1C`, the T/C under setting [15] was 101 % of control, the T/C under setting [8] was 98 % of control and the T/C under setting [9] was 102 % of control.
With `CCCC(=O)OCC1OC(n2cnc3c(=S)nc[nH]c32)C(OC(=O)CCC)C1OC(=O)CCC` (stereo unspecified), the T/C is 105 % of control under setting [11] and 90 % of control under setting [12].
Regarding `O=CC(O)C(O)C(O)C(O)C(=O)O.[NH-]C1CCCCC1[NH-].[Pt+2]` (stereo unspecified), the T/C is 105 % of control (dose: 0.2 mg/kg/injection, schedule: Q01DX009 (ip), vehicle: saline) and 162 % of control under setting [10].
As for `CCOC(=O)CN=NNc1[nH]ncc1C(N)=O`, the T/C was 100 % of control (dose: 100.0 mg/kg/injection, schedule: Q04DX003 (ip), vehicle: saline with Tween-80); 104 % of control (dose: 200.0 mg/kg/injection, schedule: Q04DX003 (ip), vehicle: saline with Tween-80); 111 % of control (dose: 400.0 mg/kg/injection, schedule: Q04DX003 (ip), vehicle: saline with Tween-80).
For `CCOC(=O)NC(C)(C)CN(CCCO)C(=O)OCC`, the T/C is, setting by setting: under setting [5], 100 % of control; under setting [6], 100 % of control; under setting [7], 97 % of control.
For `COc1cc2c(cc1OC)-c1ccc3cc4c(cc3c1N(C)C2)OCO4`, the T/C (dose: 5.0 mg/kg/injection, schedule: Q01DX009 (ip), vehicle: water) was 103 % of control; the T/C (dose: 10.0 mg/kg/injection, schedule: Q01DX009 (ip), vehicle: water) is 102 % of control; the T/C (dose: 20.0 mg/kg/injection, schedule: Q01DX009 (ip), vehicle: water) is 100 % of control; the T/C (dose: 40.0 mg/kg/injection, schedule: Q01DX009 (ip), vehicle: water) is 101 % of control; the T/C (dose: 80.0 mg/kg/injection, schedule: Q01DX009 (ip), vehicle: water) is 102 % of control.
Consider `CC(Br)C1(c2cccc([N+](=O)[O-])c2)OCCO1` (stereo unspecified), for which the T/C runs as follows: (dose: 25.0 mg/kg/injection, schedule: Q04DX003 (ip), vehicle: Klucel (hydroxypropylcellulose) (HPC)) 94 % of control; (dose: 50.0 mg/kg/injection, schedule: Q04DX003 (ip), vehicle: Klucel (hydroxypropylcellulose) (HPC)) 92 % of control.

The record behind these values is PubChem BioAssay AID192 (DTP/NCI, 2004).
